Results from ChEMBL document CHEMBL1201862, “PubChem BioAssay data set” (2004).
Activity calls are given as the source filed them.

Key:
[1] = molecular target: T1, Coagulation factor XII (Homo sapiens, UniProt P00748); test: FXIIa inhibitor potency, concentration-response, biochemical (AID 716); type: functional
T1 sequence (P00748 whole entry): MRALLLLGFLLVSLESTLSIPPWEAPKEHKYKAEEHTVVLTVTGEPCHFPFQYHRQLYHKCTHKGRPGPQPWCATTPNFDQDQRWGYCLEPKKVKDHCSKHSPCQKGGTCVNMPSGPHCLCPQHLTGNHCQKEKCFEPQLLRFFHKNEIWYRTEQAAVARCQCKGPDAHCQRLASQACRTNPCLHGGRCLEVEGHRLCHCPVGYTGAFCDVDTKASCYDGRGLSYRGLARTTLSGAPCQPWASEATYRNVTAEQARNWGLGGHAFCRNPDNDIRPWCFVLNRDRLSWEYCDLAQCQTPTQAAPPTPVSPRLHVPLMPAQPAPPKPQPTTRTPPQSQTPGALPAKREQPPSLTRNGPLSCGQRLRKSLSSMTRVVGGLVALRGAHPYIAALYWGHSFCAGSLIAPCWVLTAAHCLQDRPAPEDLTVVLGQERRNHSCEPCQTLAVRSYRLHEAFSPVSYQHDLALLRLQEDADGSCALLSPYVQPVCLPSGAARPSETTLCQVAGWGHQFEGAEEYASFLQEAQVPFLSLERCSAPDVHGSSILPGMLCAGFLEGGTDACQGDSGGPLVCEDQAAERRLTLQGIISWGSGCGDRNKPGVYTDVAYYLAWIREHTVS

[2] = molecular target: Potassium voltage-gated channel subfamily KQT member 2 (Rattus norvegicus, UniProt O88943); test: retigabine-insensitive KCNQ2 potentiators, concentration-response, dose response, cell-based, retigabine-insensitive compounds (AID 2654); type: functional
[3] = molecular target: Beta-galactosidase (Escherichia coli, UniProt Q8VNN2); test: beta-galactosidase enzyme inhibitors and activators, dose response, artefact control for CCR6 antagonist project, biochemical, E. coli enzyme, set 3 (AID 504712); type: functional
Beta-galactosidase, sequence (Q8VNN2 whole entry): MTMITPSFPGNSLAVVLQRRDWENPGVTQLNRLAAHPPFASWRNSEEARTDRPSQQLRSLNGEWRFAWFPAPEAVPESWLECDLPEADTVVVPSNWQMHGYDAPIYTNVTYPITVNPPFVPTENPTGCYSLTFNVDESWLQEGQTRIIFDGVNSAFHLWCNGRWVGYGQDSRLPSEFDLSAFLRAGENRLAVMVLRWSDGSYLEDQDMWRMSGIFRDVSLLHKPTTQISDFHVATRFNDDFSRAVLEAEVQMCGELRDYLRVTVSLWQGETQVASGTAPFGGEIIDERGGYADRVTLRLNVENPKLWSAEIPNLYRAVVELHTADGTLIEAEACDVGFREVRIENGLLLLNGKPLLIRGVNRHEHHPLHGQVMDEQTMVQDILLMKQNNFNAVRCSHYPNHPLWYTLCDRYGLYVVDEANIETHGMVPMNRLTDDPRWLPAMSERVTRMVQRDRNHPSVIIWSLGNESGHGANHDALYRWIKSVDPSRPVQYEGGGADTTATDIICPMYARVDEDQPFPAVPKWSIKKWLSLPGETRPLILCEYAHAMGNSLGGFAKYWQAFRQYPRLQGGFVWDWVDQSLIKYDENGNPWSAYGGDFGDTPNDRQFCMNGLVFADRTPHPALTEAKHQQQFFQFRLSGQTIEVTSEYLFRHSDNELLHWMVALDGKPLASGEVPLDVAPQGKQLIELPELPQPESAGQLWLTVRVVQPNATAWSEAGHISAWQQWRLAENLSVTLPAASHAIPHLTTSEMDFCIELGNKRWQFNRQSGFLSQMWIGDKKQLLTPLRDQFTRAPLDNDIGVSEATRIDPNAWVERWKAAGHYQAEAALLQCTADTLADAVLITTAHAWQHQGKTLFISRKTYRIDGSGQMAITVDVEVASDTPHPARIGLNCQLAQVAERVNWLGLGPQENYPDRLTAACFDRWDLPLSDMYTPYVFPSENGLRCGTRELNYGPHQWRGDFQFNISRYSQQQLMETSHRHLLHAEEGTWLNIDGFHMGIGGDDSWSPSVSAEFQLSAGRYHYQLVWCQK

[4] = molecular target: T2, Intestinal-type alkaline phosphatase (Homo sapiens, UniProt P09923); test: Dose Response confirmation of uHTS hits from a small molecule inhibitors of human intestinal alkaline phosphatase via a luminescent assay. [Related pubchem assays (depositor defined):AID2544, AID2574]; type: functional
T2 sequence (P09923 whole entry): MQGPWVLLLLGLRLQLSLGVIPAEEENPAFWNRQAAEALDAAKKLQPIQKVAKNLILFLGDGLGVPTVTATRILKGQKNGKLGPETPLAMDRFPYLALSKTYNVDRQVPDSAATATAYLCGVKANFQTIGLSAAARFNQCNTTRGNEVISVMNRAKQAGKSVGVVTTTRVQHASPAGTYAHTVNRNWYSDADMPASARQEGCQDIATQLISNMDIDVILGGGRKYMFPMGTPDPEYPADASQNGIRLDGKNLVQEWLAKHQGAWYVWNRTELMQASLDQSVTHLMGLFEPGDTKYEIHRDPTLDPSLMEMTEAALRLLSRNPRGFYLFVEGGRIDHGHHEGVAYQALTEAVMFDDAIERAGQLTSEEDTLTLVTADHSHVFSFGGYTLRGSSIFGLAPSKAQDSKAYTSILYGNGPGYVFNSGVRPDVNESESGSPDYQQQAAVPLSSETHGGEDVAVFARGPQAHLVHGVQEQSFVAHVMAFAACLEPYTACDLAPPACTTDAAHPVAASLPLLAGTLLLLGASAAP

[5] = molecular target: T3, Alkaline phosphatase, tissue-nonspecific isozyme (Homo sapiens, UniProt P05186); test: human TNAP enzyme inhibitors, SAR follow-up, biochemical, luminescent, dose response (AID 1056)
T3 sequence (P05186 whole entry): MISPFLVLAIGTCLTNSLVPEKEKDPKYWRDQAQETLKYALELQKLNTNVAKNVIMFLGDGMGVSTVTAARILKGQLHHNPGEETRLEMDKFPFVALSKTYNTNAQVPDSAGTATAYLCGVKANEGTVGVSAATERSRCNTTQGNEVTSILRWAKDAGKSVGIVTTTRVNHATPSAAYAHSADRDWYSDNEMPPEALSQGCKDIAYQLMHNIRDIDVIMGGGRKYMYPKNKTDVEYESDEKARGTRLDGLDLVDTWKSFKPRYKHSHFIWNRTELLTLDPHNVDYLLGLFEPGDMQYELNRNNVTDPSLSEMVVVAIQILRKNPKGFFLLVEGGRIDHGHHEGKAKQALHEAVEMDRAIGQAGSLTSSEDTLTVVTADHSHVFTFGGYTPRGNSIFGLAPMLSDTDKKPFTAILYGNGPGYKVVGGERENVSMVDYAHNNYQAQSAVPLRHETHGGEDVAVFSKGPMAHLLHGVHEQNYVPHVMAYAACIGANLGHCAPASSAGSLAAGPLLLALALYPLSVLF

[6] = molecular target: Alkaline phosphatase, placental type (Homo sapiens, UniProt P05187); test: PLAP enzyme inhibitors, confirmation, biochemical, luminescence (AID 1512); type: functional
[7] = molecular target: T4, Caspase-3 (Homo sapiens, UniProt P42574); test: procaspase-3 activators, dose response, biochemical, absorbance (AID 489014)
T4 sequence (P42574 whole entry): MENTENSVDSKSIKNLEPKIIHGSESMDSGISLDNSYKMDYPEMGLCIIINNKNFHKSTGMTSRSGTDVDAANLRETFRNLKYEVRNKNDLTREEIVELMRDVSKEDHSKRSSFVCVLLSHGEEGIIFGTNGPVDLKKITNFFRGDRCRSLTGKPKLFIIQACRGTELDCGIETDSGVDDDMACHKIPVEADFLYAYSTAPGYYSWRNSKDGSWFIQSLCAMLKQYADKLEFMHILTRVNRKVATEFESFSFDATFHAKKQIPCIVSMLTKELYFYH

[8] = molecular target: Caspase-7 (Homo sapiens, UniProt P55210); test: procaspase-7 activators, dose response, counter-screen for procaspase-3 activator project, biochemical, absorbance (AID 489013)
[9] = molecular target: Phosphomannomutase 2 (Homo sapiens, UniProt O15305); test: Counter screen SAR assay for PMM2 inhibitors via a fluorescence intensity assay. [Related pubchem assays (depositor defined):AID1545, AID1574]
Phosphomannomutase 2, sequence (O15305 whole entry): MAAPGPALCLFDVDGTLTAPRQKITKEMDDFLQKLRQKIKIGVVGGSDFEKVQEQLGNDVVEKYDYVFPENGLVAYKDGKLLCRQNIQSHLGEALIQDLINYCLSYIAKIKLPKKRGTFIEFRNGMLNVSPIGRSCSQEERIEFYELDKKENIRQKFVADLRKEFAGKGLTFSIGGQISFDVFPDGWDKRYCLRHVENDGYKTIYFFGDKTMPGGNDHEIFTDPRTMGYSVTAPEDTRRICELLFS

[10] = molecular target: DNA dC->dU-editing enzyme APOBEC-3G (Homo sapiens, UniProt Q9HC16); test: Dose Response confirmation of small molecule APOBEC3G DNA Deaminase Inhibitors via a fluorescence-based single-stranded DNA deaminase assay. [Related pubchem assays (depositor defined):AID493012, AID493028]; type: functional
DNA dC->dU-editing enzyme APOBEC-3G, sequence (Q9HC16 whole entry): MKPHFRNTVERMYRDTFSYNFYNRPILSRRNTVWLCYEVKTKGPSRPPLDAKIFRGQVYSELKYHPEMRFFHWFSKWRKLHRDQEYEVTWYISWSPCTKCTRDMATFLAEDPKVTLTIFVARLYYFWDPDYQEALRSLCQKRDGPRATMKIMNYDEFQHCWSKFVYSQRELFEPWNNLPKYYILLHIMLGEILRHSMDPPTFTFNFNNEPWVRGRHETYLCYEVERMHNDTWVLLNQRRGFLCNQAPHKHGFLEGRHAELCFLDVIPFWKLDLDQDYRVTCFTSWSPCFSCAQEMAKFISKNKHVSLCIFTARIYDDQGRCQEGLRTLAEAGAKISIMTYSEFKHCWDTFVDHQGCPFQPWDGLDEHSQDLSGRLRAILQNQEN

[11] = molecular target: Phosphoethanolamine/phosphocholine phosphatase (Homo sapiens, UniProt Q8TCT1); test: SAR assay for compounds that inhibit PHOSPHO1. [Related pubchem assays (depositor defined):AID1545, AID1565, AID1574]
Phosphoethanolamine/phosphocholine phosphatase, sequence (Q8TCT1 whole entry): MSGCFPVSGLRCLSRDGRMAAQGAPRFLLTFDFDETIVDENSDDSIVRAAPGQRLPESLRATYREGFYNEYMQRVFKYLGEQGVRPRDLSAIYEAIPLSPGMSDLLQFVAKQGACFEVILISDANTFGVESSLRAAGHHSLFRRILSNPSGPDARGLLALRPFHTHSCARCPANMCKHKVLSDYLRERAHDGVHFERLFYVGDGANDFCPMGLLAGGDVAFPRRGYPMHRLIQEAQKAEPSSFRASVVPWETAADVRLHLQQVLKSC

[12] = molecular target: Glucose-6-phosphate 1-dehydrogenase (Homo sapiens, UniProt P11413); test: human G6PD enzyme inhibitors, dose response, selectivity assay for P. falciparum G6PD inhibitor project, biochemical, fluorescence (AID 504792); type: functional
Glucose-6-phosphate 1-dehydrogenase, sequence (P11413 whole entry): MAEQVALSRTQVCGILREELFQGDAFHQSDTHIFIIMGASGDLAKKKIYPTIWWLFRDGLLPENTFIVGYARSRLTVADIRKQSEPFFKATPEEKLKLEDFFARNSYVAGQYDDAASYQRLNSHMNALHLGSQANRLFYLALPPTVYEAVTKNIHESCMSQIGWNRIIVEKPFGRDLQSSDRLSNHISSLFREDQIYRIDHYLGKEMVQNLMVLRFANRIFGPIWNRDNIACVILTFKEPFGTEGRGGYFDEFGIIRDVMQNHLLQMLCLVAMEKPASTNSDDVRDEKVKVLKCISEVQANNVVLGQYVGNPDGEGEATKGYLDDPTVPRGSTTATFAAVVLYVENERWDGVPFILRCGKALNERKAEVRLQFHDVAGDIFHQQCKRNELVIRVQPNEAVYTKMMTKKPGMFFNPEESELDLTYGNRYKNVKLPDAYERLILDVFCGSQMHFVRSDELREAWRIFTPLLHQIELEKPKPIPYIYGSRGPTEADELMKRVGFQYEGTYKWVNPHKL

[13] = molecular target: DNA dC->dU-editing enzyme APOBEC-3A (Homo sapiens, UniProt P31941); test: APOBEC3A DNA deaminase inhibitors, dose response, biochemical (AID 504722); type: functional
DNA dC->dU-editing enzyme APOBEC-3A, sequence (P31941 whole entry): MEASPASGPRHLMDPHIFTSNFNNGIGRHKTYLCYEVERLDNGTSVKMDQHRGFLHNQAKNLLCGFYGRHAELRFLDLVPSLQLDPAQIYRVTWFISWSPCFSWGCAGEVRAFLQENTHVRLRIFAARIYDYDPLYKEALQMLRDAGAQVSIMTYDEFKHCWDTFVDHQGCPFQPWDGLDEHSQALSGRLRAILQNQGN

[14] = molecular target: ORF 73 (Human herpesvirus 8, UniProt O40947); test: inhibitors of C-LANA binding to LBS DNA, dose response, biochemical, fluorescence polarization, cherry-picked samples (AID 504725); design: species or system Human gammaherpesvirus 8;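 further: fluorescence polarization of a labeled DNA duplex reporting LANA DNA binding; potency is for inhibitors that block LANA binding to the DNA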
[15] = molecular target: T2, Intestinal-type alkaline phosphatase; test: inhibition of human intestinal alkaline phosphatase – biochemical, dose response (AID 488876); type: functional
[16] = molecular target: 1-phosphatidylinositol 4,5-bisphosphate phosphodiesterase beta-3 (Homo sapiens, UniProt Q01970); test: Fluorescence-based biochemical high throughput dose response assay to identify inhibitors of phospholipase C isozymes (PLC-B3).
[17] = molecular target: Intestinal-type alkaline phosphatase (Mus musculus, UniProt P24822); test: PubChem AID 488785; type: functional
Intestinal-type alkaline phosphatase (Mus musculus, UniProt P24822), sequence (P24822 whole entry): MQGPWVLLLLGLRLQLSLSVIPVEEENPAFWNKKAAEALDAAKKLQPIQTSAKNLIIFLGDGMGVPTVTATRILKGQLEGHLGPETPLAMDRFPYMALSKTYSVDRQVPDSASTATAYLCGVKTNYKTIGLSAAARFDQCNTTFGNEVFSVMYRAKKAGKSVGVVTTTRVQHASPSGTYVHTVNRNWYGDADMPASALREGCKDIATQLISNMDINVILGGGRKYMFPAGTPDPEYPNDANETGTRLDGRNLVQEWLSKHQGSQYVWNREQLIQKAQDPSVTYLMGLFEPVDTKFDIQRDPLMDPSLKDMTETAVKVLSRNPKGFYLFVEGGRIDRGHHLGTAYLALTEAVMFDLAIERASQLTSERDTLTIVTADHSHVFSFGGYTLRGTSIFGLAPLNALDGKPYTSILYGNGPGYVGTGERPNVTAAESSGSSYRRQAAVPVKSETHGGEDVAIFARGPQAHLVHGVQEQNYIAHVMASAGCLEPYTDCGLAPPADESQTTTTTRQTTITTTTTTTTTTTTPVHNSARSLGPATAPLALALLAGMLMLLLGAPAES

[18] = molecular target: T3, Alkaline phosphatase, tissue-nonspecific isozyme; test: TNAP enzyme inhibition by screening hits, dose response, selectivity assay for mouse IAP inhibitor project, biochemical, human TNAP, uHTS hits (AID 488906); type: functional
[19] = molecular target: T5, Histone-lysine N-methyltransferase NSD2 (Homo sapiens, UniProt O96028); type: biochemical
T5 sequence (O96028 whole entry): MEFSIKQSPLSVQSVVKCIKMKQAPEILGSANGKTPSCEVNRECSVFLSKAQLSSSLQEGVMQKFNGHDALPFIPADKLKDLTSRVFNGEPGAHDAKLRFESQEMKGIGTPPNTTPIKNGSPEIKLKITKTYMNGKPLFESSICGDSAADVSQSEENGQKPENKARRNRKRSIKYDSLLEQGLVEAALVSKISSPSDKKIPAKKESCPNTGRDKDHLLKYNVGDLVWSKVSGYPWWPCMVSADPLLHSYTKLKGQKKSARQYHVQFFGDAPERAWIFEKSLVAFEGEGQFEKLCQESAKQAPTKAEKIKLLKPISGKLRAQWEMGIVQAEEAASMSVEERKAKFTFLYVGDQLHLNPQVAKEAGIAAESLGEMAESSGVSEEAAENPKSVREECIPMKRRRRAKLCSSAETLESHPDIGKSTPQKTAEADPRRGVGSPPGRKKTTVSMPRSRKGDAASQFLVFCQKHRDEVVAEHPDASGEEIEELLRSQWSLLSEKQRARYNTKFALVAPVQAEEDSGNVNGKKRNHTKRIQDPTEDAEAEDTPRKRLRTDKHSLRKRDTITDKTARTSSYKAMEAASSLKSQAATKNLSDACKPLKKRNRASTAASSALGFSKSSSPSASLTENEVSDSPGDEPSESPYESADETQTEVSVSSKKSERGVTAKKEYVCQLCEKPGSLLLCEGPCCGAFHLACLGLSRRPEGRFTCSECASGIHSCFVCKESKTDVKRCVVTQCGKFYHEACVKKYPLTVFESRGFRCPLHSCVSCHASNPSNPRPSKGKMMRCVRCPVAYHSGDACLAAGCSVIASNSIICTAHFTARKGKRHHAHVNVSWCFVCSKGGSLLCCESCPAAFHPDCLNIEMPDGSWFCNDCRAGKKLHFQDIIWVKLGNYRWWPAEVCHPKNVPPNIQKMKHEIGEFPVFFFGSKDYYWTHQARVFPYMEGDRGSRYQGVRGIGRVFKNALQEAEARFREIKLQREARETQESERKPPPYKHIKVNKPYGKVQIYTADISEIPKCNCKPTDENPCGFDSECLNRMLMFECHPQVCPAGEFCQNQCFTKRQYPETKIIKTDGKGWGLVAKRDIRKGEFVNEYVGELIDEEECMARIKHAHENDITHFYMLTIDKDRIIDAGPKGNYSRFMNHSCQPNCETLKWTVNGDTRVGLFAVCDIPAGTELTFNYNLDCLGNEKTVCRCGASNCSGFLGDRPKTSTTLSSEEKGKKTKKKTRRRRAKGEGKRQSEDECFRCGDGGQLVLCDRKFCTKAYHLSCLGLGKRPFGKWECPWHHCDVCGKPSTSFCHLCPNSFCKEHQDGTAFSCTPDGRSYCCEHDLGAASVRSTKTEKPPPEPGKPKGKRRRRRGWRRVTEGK

[20] = molecular target: 1-phosphatidylinositol 4,5-bisphosphate phosphodiesterase gamma-1 (Homo sapiens, UniProt P19174); test: Counterscreen for inhibitors of phospholipase C isozymes (PLC-B3): Fluorescence-based biochemical high throughput dose response assay to identify inhibitors of phospholipase C isozymes (PLC-gamma1).
1-phosphatidylinositol 4,5-bisphosphate phosphodiesterase gamma-1, sequence (P19174 whole entry): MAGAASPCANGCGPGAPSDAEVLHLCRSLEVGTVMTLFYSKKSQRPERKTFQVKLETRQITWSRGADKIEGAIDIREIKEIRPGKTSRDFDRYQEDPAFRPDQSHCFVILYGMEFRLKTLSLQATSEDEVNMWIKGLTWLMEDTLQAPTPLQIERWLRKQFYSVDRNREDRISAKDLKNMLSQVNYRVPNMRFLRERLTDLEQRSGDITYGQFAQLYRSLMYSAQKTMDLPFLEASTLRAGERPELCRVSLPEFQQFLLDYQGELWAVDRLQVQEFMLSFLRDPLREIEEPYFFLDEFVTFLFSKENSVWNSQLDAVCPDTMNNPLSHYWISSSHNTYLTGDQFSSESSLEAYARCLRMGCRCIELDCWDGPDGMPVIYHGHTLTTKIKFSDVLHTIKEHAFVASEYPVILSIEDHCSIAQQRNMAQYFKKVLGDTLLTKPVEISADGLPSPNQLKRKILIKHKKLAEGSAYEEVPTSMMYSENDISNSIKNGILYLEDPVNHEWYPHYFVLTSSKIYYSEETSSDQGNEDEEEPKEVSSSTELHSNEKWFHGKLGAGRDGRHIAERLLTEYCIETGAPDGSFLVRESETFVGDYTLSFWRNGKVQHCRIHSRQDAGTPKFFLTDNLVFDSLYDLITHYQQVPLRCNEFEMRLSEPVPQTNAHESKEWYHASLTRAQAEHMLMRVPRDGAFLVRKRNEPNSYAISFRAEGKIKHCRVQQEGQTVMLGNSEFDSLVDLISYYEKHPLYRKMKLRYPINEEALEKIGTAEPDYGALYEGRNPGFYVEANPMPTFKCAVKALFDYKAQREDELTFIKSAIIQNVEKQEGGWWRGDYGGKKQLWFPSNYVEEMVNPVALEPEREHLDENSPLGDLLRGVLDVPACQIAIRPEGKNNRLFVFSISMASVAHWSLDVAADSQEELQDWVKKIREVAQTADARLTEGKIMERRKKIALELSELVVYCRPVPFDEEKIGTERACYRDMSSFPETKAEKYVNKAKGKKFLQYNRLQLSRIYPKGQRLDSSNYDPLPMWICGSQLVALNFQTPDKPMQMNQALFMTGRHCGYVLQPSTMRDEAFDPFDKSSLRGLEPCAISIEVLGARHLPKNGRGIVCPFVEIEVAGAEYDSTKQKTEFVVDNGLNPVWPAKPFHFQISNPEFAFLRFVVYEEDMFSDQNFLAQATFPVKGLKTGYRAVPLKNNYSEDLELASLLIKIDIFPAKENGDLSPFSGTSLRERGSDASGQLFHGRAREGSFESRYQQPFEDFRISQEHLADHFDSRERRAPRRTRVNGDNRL

[21] = molecular target: T6, Short transient receptor potential channel 4 (Mus musculus, UniProt Q9QUQ5); test: TRPC4 positive allosteric modulators, dose response, cell-based, HEK293 TRPC4/mu-opioid, Fluo-4 calcium, EC20 DAMGO (AID 434941); type: functional
T6 sequence (Q9QUQ5 whole entry): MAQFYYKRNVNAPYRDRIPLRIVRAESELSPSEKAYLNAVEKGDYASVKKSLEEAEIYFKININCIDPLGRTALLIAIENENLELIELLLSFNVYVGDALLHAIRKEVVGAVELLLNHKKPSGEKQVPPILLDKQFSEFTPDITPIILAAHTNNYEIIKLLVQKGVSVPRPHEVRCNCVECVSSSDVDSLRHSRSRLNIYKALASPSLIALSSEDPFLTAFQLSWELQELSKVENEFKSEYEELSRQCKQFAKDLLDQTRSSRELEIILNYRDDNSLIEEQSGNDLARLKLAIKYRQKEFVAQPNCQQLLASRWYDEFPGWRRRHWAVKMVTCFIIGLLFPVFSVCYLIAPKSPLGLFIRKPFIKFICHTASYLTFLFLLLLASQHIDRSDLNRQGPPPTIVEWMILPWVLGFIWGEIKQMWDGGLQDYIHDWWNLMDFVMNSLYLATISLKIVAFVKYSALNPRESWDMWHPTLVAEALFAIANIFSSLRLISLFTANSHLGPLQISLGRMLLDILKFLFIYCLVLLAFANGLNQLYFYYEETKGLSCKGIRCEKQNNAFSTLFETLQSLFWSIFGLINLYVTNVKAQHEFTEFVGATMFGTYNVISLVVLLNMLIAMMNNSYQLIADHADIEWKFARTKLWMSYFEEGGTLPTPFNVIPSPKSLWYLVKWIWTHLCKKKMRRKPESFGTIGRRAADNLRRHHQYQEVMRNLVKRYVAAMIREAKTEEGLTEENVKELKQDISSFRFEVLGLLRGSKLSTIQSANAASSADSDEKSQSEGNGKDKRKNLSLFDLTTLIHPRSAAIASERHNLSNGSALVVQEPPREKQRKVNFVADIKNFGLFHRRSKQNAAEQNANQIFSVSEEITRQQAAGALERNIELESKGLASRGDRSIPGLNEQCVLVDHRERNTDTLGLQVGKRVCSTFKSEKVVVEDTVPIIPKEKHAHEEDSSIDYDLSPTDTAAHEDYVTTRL

Structure (SMILES): CCOC(=O)CSc1nnc(CNC(=O)Cc2ccccc2)n1C
- IC50 [1]: > 50 µM (inactive)

Structure (SMILES): Cc1cc(C)cc(NC(=O)Nc2cccnc2)c1
- EC50 [2]: 10.7 µM (active)

Structure (SMILES): CCCOc1cccc(C(=O)NC(=S)Nc2cccc(C(F)(F)F)c2)c1
- IC50 [3]: > 66.6 µM (inactive)

Structure (SMILES): Cc1cc2nc(C3CCN(Cc4nnnn4Cc4cccs4)CC3)[nH]c2cc1C
- IC50 [4]: > 100 µM (inactive)
- IC50 [5]: 5.64 µM (active)
- IC50 [6]: 2.73 µM (active)

Structure (SMILES): CC1(C)CC(=O)C2=C(C1)c1c(ccc3ccccc13)NC2c1ccc(Br)o1 (configuration not stated)
- EC50 [7]: > 85.2 µM (inactive)
- EC50 [8]: > 85.2 µM (inactive)

Structure (SMILES): O=c1c2cc(F)ccc2sn1-c1ccc(F)cc1
- IC50 [5]: > 100 µM (inactive)
- IC50 [9]: 86.9 µM (active)
- IC50 [10]: 15.5 µM (active)
- IC50 [11]: > 10 µM (inactive)
- IC50 [12]: 16.7 µM (active)
- IC50 [13]: > 100 µM (inactive)

Structure (SMILES): O=C(CCCN1C(=O)/C(=C\c2ccco2)SC1=S)Nc1ccc(O)cc1C(=O)O
- AC50 [14]: 47.2 µM (active)
- IC50 [15]: > 100 µM (inactive)
- IC50 [16]: > 122 µM (inactive)
- IC50 [17]: 6.43 µM (active)
- IC50 [18]: > 100 µM (inactive)
- AC50 [19]: 16.1 µM (active)
- IC50 [20]: > 122 µM (inactive)

Structure (SMILES): COc1ccc(/N=C(\C)C2=C(O)C(=O)N(CCO)C2c2ccc([N+](=O)[O-])cc2)cc1 (configuration not stated)
- EC50 [21]: 0.47 µM (active)
